“Also recorded” adds a separate entry of the source.
Tests used:
[1] = target: T1, Human recombinant GABAA receptor containing α3 subunit (α3, β3, γ2) (Homo sapiens, UniProt P18507+P34903); assay: Competitive radioligand binding ([3H]Ro-0151788) on membranes of 293 cells, Ki; conditions: human recombinant GABAA subtype containing α3; read-out: Affinity, nM (α3)
T1 construct: expressed in transfected cells; host or cells: 293 cell line
Description: (§1) Different subunits of GABAA receptor were expressed in cell lines, including human kidney epithelial cell line, 293 cell line or L(tk−) cell line. The cells were cultured in medium, and such cells were used as the cellular model for screening drugs to suppress pain. a subunit, β subunit and γ subunit are indispensable for one complete functional GABAA receptor.
(§2) In this example, the inventors established the following cellular models:
(§3) (d) simultaneously expressing α3 subunit (for the protein sequence, see GenBank accession number NM_000808.3), β3 subunit and γ2 subunit in 293 cell line, forming the GABAA receptor containing α3 subunit;
(§4) Each of the (a) to (d) above could form a GABAA receptor with complete function.
(§5) Then, the cellular membrane was extracted and the protein concentration was measured. The competitive binding of the substances to be measured and radiolabelled compounds (e.g. 1 nM [^3H]Ro-0151788) were detected respectively to calculate the Ki value of the substances to be measured, see the method described in literature (Ballard T M et al., RO4938581, a novel cognitive enhancer acting at GABAA alpha5 subunit-containing receptors. Psychopharmacology (Berl). 2009 January; 202(1-3): 207-23). If the binding inhibition constant Ki (nM) of α5-GABAA receptor with the candidate substances in experimental group is less than the Ki of the receptor containing other a subunit (α1 subunit, α2 subunit or α3 subunit), then the candidate substance is a potential drugs for preventing, relieving or treating pain. Many methods can be used by those skilled in the art to evaluate the binding capacity of the ligand of α5-GABAA receptor to the α5-GABAA receptor, including but not limiting to the method above.

[2] = target: T2, Human recombinant α5-GABAA receptor (Homo sapiens, UniProt P18507+P31644); assay: Electrophysiological inverse agonist efficacy on GABA-induced current; format: cell-based; conditions: change of GABA-induced current; negative = inhibition
T2 construct: expressed in transfected cells; host or cells: 293 cell line
Description: as §1
(§6) (a) simultaneously expressing α5 subunit (for the protein sequence, see GenBank accession number NM_001165037.1), β3 subunit (for the protein sequence, see GenBank accession number NM_021912.4) and γ2 subunit (for the protein sequence, see GenBank accession number NM_198904.2) in 293 cell line, forming the GABAA receptor containing α5 subunit;
(§7) The inventors used electrophysiological methods to measure the inverse agonist efficacy of the substances to be measured, see the method described in literature (Ballard T M et al., RO4938581, a novel cognitive enhancer acting at GABAA alpha5 subunit-containing receptors. Psychopharmacology (Berl). 2009 January; 202 (1-3): 207-23). […] Many methods can be used by those skilled in the art to evaluate the binding capacity of the ligand of α5-GABAA receptor to the α5-GABAA receptor, including but not limiting to the method above.
(§8) Inverse agonist efficacy represents the inhibition percentage of the candidate substance on the current induced by GABA through α5-GABAA receptor=(the current intensity induced by GABA through α5-GABAA receptor with the existence of candidate substance−the current intensity induced by GABA through α5-GABAA receptor without the existence of candidate substance)/the current intensity induced by GABA through α5-GABAA receptor without the existence of candidate substance.

[3] = test system: CFA induced inflammatory pain model rats (mechanical pain); assay: CFA induced inflammatory pain model, mechanical pain threshold; format: in vivo; conditions: rat, 1 hour after administration
[4] = target: T3, Human recombinant GABAA receptor containing α3 subunit (Homo sapiens, UniProt P18507+P34903); assay: Electrophysiological inverse agonist efficacy on GABA-induced current; format: cell-based; conditions: change of GABA-induced current; negative = inhibition
T3 construct: expressed in transfected cells; host or cells: 293 cell line
Description: as §1, §3, §7, §8

[5] = human, Phase I; cited from earlier work
[6] = test system: CFA induced inflammatory pain model rats (heat pain); assay: CFA induced inflammatory pain model, heat pain threshold; format: in vivo; conditions: rat, 1 hour after administration
[7] = test system: Human recombinant GABAA receptor containing α2 subunit; assay: Electrophysiological inverse agonist efficacy on GABA-induced current; format: cell-based; conditions: change of GABA-induced current; negative = inhibition
Description: as §1
(§9) (b) simultaneously expressing α1 subunit (GenBank accession number: NM_001127648.1), β3 subunit and γ2 subunit in 293 cell line, forming the GABAA receptor containing α1 subunit; • (c) simultaneously expressing α2 subunit (for the protein sequence, see GenBank accession number NM_000813.2), β3 subunit and γ2 subunit in 293 cell line, forming the GABAA receptor containing α2 subunit;
as §7, §8

[8] = target: T4, Human recombinant GABAA receptor containing α1 subunit (Homo sapiens, UniProt P14867+P18507); assay: as above; format: cell-based; conditions: change of GABA-induced current; negative = inhibition
T4 construct: expressed in transfected cells; host or cells: 293 cell line
Description: as §1, §9, §7, §8

[9] = test system: α5-GABAA receptor in central nervous system; conditions: in vivo, Jones et al. 2006; cited from earlier work
[10] = target: T5, Human recombinant GABAA receptor containing α5 subunit (α5, β3, γ2) (Homo sapiens, UniProt P18507+P31644); assay: Competitive radioligand binding ([3H]Ro-0151788) on membranes of 293 cells, Ki; conditions: human recombinant GABAA subtype containing α5; read-out: Affinity, nM (α5)
T5 construct: expressed in transfected cells; host or cells: 293 cell line
Description: as §1, §2, §6, §4, §5

[11] = target: T6, Human recombinant GABAA receptor containing α1 subunit (α1, β3, γ2) (Homo sapiens, UniProt P14867+P18507); assay: as above; conditions: human recombinant GABAA subtype containing α1; read-out: Affinity, nM (α1)
T6 construct: expressed in transfected cells; host or cells: 293 cell line
Description: as §1, §2, §9, §4, §5

[12] = target: T7, Human recombinant GABAA receptor containing α2 subunit (α2, β3, γ2) (Homo sapiens, UniProt P18507+P47869); assay: as above; conditions: human recombinant GABAA subtype containing α2; read-out: Affinity, nM (α2)
T7 construct: expressed in transfected cells; host or cells: 293 cell line
Description: as §1, §2, §9, §4, §5

[13] = test system: SNI model rats (neuropathic pain); assay: Spared nerve injury (SNI) model, neuropathic pain, mechanical pain threshold; format: in vivo; conditions: rat
Description: Male SD rats (200-250 g) were used, 6 per group in the cage. All the animals were placed under 12 hours light/cycle (i.e. 12 hours light and 12 hours dark in each day), free to food and water. All the experiments were conducted under the condition that the observers were blind to pharmaceutical treatment.
Spared nerve injury model (SNI): 10% chloral hydrate was injected intraperitoneally to anesthetize rats. […] The muscle was longitudinally separated to expose the core of sciatic nerve and the branching below: tibial nerve, common peroneal nerve and sural nerve. The tibial nerve and common peroneal nerve were ligatured and cut and small sural nerve was retained, meanwhile preventing any injury. The muscle and skin were sutured layer by layer, and then antibiotics were injected intraperitoneally for antibacterial purpose. For detailed methods, please refer to Decosterd I and Woolf C J. Spared nerve injury: an animal model of persistent peripheral neuropathic pain. 2000 August; Pain 87(2):149-58.
Method for detecting mechanical hyperalgesia in rats: firstly CFA solution was injected in the thenar of rats. After 24 hours, mechanical hyperalgesia quantitative detection was adopted to measure the paw withdrawal of rats to normal and harmless mechanical stimulation. Evaluation was conducted according to reference (Chaplan S R et al., Quantitative assessment of tactile allodynia in the rat paw. J Neurosci Methods. 1994 July; 53(1):55-63). In this method, the von Frey fibers with different bending force (equivalent to the range of 1-50 g force) were used to apply harmless mechanical stimulation. The rats were placed in organic glass box with metal mesh plate, and the von Frey fibers were applied on the surface of leg thenar. The von Frey fibers were applied vertically to the surface of thenar to generate the force that will trigger slight resistance to the leg. 2-3 seconds were maintained for every leg thenar. If the leg withdrew suddenly, positive records were recorded. The threshold was the mean of the weight that caused 50% paw withdrawal response (5-6 paw withdrawal/10 stimulations) in overall 10 stimulations.
Compounds MRK 016, C2, C3, C4, C5, C6, C7, C8 or α5IA (A5I) were dissolved in 70% PGE400 (PGE400:water=70:30 in volume). For injection dose, MRK016 was 2 mg/kg body weight; A5I was 3 mg/kg body weight; C2, C3, C4, C5, C6, C7 and C8 were 3 mg/kg body weight.
MRK016-M3 was dissolved in 90% PGE400 (PGE400:water=90:10 in volume). The doses were 10 mg/kg, 3 mg/kg, 1 mg/kg and 0.3 mg/kg, respectively for oral administration.
The method for behavioral data statistics was unpaired t-test. *, p<0.05, represents significant difference.

[14] = test system: pentetrazol induced epilepsy in rats; assay: Pentetrazol induced epilepsy assay; format: in vivo; conditions: rat, subcutaneous 1, 3, 10 and 15 mg/kg, 100 mg/kg pentetrazol 0.5 hour later
Description: Pentetrazol induced epilepsy assays: firstly, C5 or 70% PGE400 was injected to rats, and then 100 mg/kg pentetrazol was subcutaneously injected to rats half an hour later. Pentetrazol was dissolved in saline water. Then the convulsive response of rats was observed. Fatholahi standard was adopted to score the convulsive response. Grade 0, no response; Grade 1, rhythmic mouth and face spasm; Grade 2, fluctuating wandering spasm of body; Grade 3, systemic myoclonus and warped hip; Grade 4, body turning to one side; Grade 5, renvers and systemic tetanic convulsion. It took 30 minutes for observation after administration. The highest grade and the latency time from pentetrazol injection to the induction of the highest grade were collected.

Ki [1]	Inverse agonist efficacy, % (α5) [2]	Inverse agonist efficacy, % (α3) [4]	Inverse agonist efficacy, % (α1) [8]	Ki [10]	Ki [11]	Ki [12]	Effect on pentetrazol induced epilepsy (responsive grade and latency time) [14]	Compound	Suppression of mechanical pain ([3]; 2 mg/kg intraperitoneal, 7 days after CFA model, 2 mg/kg)	Side effects in Phase I clinical trial [5]	Suppression of heat pain ([6]; 2 mg/kg intraperitoneal, 3 days after CFA model, 2 mg/kg)	Inverse agonist efficacy, % (α2) [7]	Binding to α5-GABAA receptor in brain / inhibition of (3H)Ro-15-1788 binding in center [9]	Suppression of neuropathic pain (mechanical pain threshold) ([13]; subcutaneous injection 2 mg/kg, 7 days after SNI model, 1 hour after administration)	CFA induced inflammatory pain model (mechanical pan), analgesic effect ([3]; 3 mg/kg injection, 7 days after CFA, 3 mg/kg)	CFA induced inflammatory pain model (heat pain), analgesic effect ([6]; 3 mg/kg injection, 3 days after CFA, 3 mg/kg)	Neuropathic pain (SNI model), analgesic effect ([13]; 3 mg/kg subcutaneous, 14 days after SNI, 1 hour after administration, 3 mg/kg)	Suppression of neuropathic pain at different time points ([13]; subcutaneous 1 mg/kg or 3 mg/kg, 14 days after SNI, 0.5-12 hours after administration)
0.77 nM	−55%	−9%	−16%	1.36 nM	0.83 nM	0.85 nM		Cc1cc(-c2nncc3c(C(C)(C)C)c(OCc4ncnn4C)nn23)no1 [MRK016, 3-tert-butyl-7-(5-methylisoxazol-3-yl)-2-(1-methyl-1H-1,2,4-triazol-5-ylmethoxy)-pyrazolo[1,5-d]-[1,2,4]triazine]	efficiently suppressed mechanical pain; also recorded: efficiently suppress mechanical pain	front heaviness, headache and nausea and vomiting	efficiently suppressed heat pain; also recorded: efficiently suppress heat pain	6%	can efficiently inhibit; also recorded: focused in the brain	efficiently suppressed neuropathic pain				
							no effect	OCc1cc(-c2nnc3c4ccccc4c(OCc4ccccn4)nn23)no1 [Compound C5, {3-[6-(Pyridin-2-ylmethoxy)-[1,2,4]triazolo[3,4-a]phthalazin-3-yl]-isoxazol-5-yl}-methanol]							efficiently inhibit nociceptive response; also recorded: efficiently suppressed heat pain or mechanical pain response	efficiently inhibit nociceptive response; also recorded: efficiently suppressed heat pain or mechanical pain response	efficiently inhibit nociceptive response; also recorded: efficiently suppressed neuropathic pain	efficiently could inhibit nociceptive response; also recorded: efficiently suppressed neuropathic pain
